# Measured values reported in ChEMBL document CHEMBL1201862, “PubChem BioAssay data set” (2004).
#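 Growth conditions: 96-well plates. Treatment: test compound, 48 hours, 5 concentrations. Analysis: linear interpolation between bracketing concentrations; unreached endpoints set to highest concentration. GI50 = concentration required for 50% inhibition of growth.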 Active and inactive are the calls of the source. Cut-off read from the data, not from the text of the source: active = GI50 up to about 1.1 µM and inactive = higher.
# Experiments:
# Experiment in all cases: NCI-60 cell line screen, 48 h
# 786-0 = test system: 786-0
# A549 = test system: A549
# ACHN = test system: ACHN
# CAKI-1 = test system: CAKI-1
# CCRF-CEM = test system: CCRF-CEM
# COLO 205 = test system: COLO 205
# DLD-1 = test system: DLD-1
# DMS-273 = test system: DMS-273
# EKVX = test system: EKVX
# HCC 2998 = test system: HCC 2998
# HCT-15 = test system: HCT-15
# HL-60 = test system: HL-60
# HOP-62 = test system: HOP-62
# HOP-92 = test system: HOP-92
# HT-29 = test system: HT-29
# IGROV-1 = test system: IGROV-1
# K562 = test system: K562
# KM-20L2 = test system: KM-20L2
# KM12 = test system: KM12
# LOX IMVI = test system: LOX IMVI
# LXFL 529 = test system: LXFL 529
# M14 = test system: M14
# M19-MEL = test system: M19-MEL
# MOLT-4 = test system: MOLT-4
# Malme-3M = test system: Malme-3M
# NCI-H23 = test system: NCI-H23
# NCI-H460 = test system: NCI-H460
# NCI-H522 = test system: NCI-H522
# OVCAR-3 = test system: OVCAR-3
# OVCAR-4 = test system: OVCAR-4
# OVCAR-5 = test system: OVCAR-5
# OVCAR-8 = test system: OVCAR-8
# RPMI-8226 = test system: RPMI-8226
# RXF 393 = test system: RXF 393
# RXF 631 = test system: RXF 631
# SF-268 = test system: SF-268
# SF-295 = test system: SF-295
# SK-MEL-28 = test system: SK-MEL-28
# SK-MEL-2 = test system: SK-MEL-2
# SK-MEL-5 = test system: SK-MEL-5
# SK-OV-3 = test system: SK-OV-3
# SN12C = test system: SN12C
# SNB-19 = test system: SNB-19
# SNB-75 = test system: SNB-75
# SNB-78 = test system: SNB-78
# SW-620 = test system: SW-620
# TK-10 = test system: TK-10
# UACC-257 = test system: UACC-257
# UACC-62 = test system: UACC-62
# UO-31 = test system: UO-31
# XF498 = test system: XF498
# A498 = test system: A498
# DMS-114 = test system: DMS-114
# DU-145 = test system: DU-145
# HCT-116 = test system: HCT-116
# HOP-18 = test system: HOP-18
# Hs-578T = test system: Hs-578T
# MCF7 = test system: MCF7
# MDA-MB-231 = test system: MDA-MB-231
# MDA-MB-435 = test system: MDA-MB-435
# MDA-N = test system: MDA-N
# NCI-H226 = test system: NCI-H226
# NCI/ADR-RES = test system: NCI/ADR-RES
# PC-3 = test system: PC-3
# SF-539 = test system: SF-539
# SR = test system: SR
# T47D = test system: T47D
# U-251 = test system: U-251
structure (smiles),measurement,setting,value
CC(C)NCC(O)COC(=O)c1cccs1 (configuration not stated),GI50,786-0,> 100 µM (inactive)
same,GI50,A549,> 100 µM (inactive)
same,GI50,ACHN,> 100 µM (inactive)
same,GI50,CAKI-1,> 100 µM (inactive)
same,GI50,CCRF-CEM,> 100 µM (inactive)
same,GI50,COLO 205,> 100 µM (inactive)
same,GI50,DLD-1,> 100 µM (inactive)
same,GI50,DMS-273,> 100 µM (inactive)
same,GI50,EKVX,> 100 µM (inactive)
same,GI50,HCC 2998,> 100 µM (inactive)
same,GI50,HCT-15,> 100 µM
same,GI50,HL-60,> 100 µM (inactive)
same,GI50,HOP-62,> 100 µM (inactive)
same,GI50,HOP-92,> 100 µM (inactive)
same,GI50,HT-29,> 100 µM (inactive)
same,GI50,IGROV-1,> 100 µM (inactive)
same,GI50,K562,> 100 µM (inactive)
same,GI50,KM-20L2,> 100 µM (inactive)
same,GI50,KM12,> 100 µM (inactive)
same,GI50,LOX IMVI,> 100 µM (inactive)
same,GI50,LXFL 529,> 100 µM (inactive)
same,GI50,M14,> 100 µM (inactive)
same,GI50,M19-MEL,> 100 µM (inactive)
same,GI50,MOLT-4,> 100 µM (inactive)
same,GI50,Malme-3M,> 100 µM (inactive)
same,GI50,NCI-H23,> 100 µM (inactive)
same,GI50,NCI-H460,> 100 µM (inactive)
same,GI50,NCI-H522,> 100 µM (inactive)
same,GI50,OVCAR-3,> 100 µM (inactive)
same,GI50,OVCAR-4,> 100 µM (inactive)
same,GI50,OVCAR-5,> 100 µM (inactive)
same,GI50,OVCAR-8,> 100 µM (inactive)
same,GI50,RPMI-8226,> 100 µM (inactive)
same,GI50,RXF 393,> 100 µM (inactive)
same,GI50,RXF 631,> 100 µM (inactive)
same,GI50,SF-268,> 100 µM (inactive)
same,GI50,SF-295,> 10 µM (inactive)
same,GI50,SK-MEL-28,> 100 µM (inactive)
same,GI50,SK-MEL-2,> 100 µM (inactive)
same,GI50,SK-MEL-5,> 100 µM (inactive)
same,GI50,SK-OV-3,> 100 µM (inactive)
same,GI50,SN12C,> 100 µM (inactive)
same,GI50,SNB-19,> 100 µM (inactive)
same,GI50,SNB-75,67.8 µM (inactive)
same,GI50,SNB-78,> 100 µM (inactive)
same,GI50,SW-620,> 100 µM (inactive)
same,GI50,TK-10,> 100 µM (inactive)
same,GI50,UACC-257,> 100 µM (inactive)
same,GI50,UACC-62,> 100 µM (inactive)
same,GI50,UO-31,> 100 µM (inactive)
same,GI50,XF498,> 100 µM (inactive)
Cc1csc2c1C(=O)c1ccsc1C2=O,GI50,786-0,4.63 µM (inactive)
same,GI50,A498,18.2 µM (inactive)
same,GI50,A549,1.72 µM (inactive)
same,GI50,ACHN,2.98 µM (inactive)
same,GI50,CAKI-1,19.6 µM (inactive)
same,GI50,CCRF-CEM,4.03 µM (inactive)
same,GI50,COLO 205,12.2 µM (inactive)
same,GI50,DLD-1,2.68 µM (inactive)
same,GI50,DMS-114,1.69 µM (inactive)
same,GI50,DMS-273,1.94 µM (inactive)
same,GI50,DU-145,1.88 µM (inactive)
same,GI50,EKVX,7.98 µM (inactive)
same,GI50,HCC 2998,6.11 µM (inactive)
same,GI50,HCT-116,2.17 µM (inactive)
same,GI50,HCT-15,1.49 µM
same,GI50,HL-60,2.65 µM (inactive)
same,GI50,HOP-18,1.95 µM (inactive)
same,GI50,HOP-92,3.56 µM (inactive)
same,GI50,HT-29,2.65 µM (inactive)
same,GI50,Hs-578T,1.81 µM (inactive)
same,GI50,IGROV-1,3.24 µM (inactive)
same,GI50,K562,2.85 µM (inactive)
same,GI50,KM-20L2,4.28 µM (inactive)
same,GI50,KM12,2.96 µM (inactive)
same,GI50,LOX IMVI,1.26 µM (inactive)
same,GI50,LXFL 529,3.42 µM (inactive)
same,GI50,M14,0.778 µM (active)
same,GI50,M19-MEL,0.175 µM (active)
same,GI50,MCF7,1.41 µM (inactive)
same,GI50,MDA-MB-231,2.35 µM (inactive)
same,GI50,MDA-MB-435,0.215 µM (active)
same,GI50,MDA-N,0.293 µM (active)
same,GI50,MOLT-4,4.61 µM (inactive)
same,GI50,Malme-3M,0.343 µM (active)
same,GI50,NCI-H226,11 µM (inactive)
same,GI50,NCI-H23,1.16 µM (inactive)
same,GI50,NCI-H460,1.87 µM (inactive)
same,GI50,NCI-H522,2.21 µM (inactive)
same,GI50,NCI/ADR-RES,1.87 µM (inactive)
same,GI50,OVCAR-3,2.07 µM (inactive)
same,GI50,OVCAR-4,1.89 µM (inactive)
same,GI50,OVCAR-5,1.96 µM (inactive)
same,GI50,OVCAR-8,2.99 µM (inactive)
same,GI50,PC-3,2.58 µM (inactive)
same,GI50,RPMI-8226,3.61 µM (inactive)
same,GI50,RXF 393,3.21 µM (inactive)
same,GI50,SF-268,2.96 µM (inactive)
same,GI50,SF-295,1.59 µM (inactive)
same,GI50,SF-539,2.01 µM (inactive)
same,GI50,SK-MEL-28,1.53 µM (inactive)
same,GI50,SK-MEL-2,2.03 µM (inactive)
same,GI50,SK-MEL-5,0.589 µM (active)
same,GI50,SK-OV-3,20.4 µM (inactive)
same,GI50,SN12C,2.2 µM (inactive)
same,GI50,SNB-19,3.37 µM (inactive)
same,GI50,SNB-75,1.97 µM (inactive)
same,GI50,SNB-78,4.27 µM (inactive)
same,GI50,SR,4.15 µM (inactive)
same,GI50,SW-620,2.47 µM (inactive)
same,GI50,T47D,2.2 µM (inactive)
same,GI50,TK-10,19.1 µM (inactive)
same,GI50,U-251,3.4 µM (inactive)
same,GI50,UACC-257,1.52 µM (inactive)
same,GI50,UACC-62,1.69 µM (inactive)
same,GI50,UO-31,2.87 µM (inactive)
same,GI50,XF498,2.35 µM (inactive)
